Where two headings read alike, the source gives them in different places.
What was measured:
[1] = tested on: recombinant human kidney enzyme (Na+/K+-ATPase); settings: ref 14 (Katz et al., their Table 1); cited from earlier work
[2] = target: pig kidney Na+/K+-ATPase (PKE) (Sus scrofa, UniProt P05024); experiment: Na+/K+-ATPase activity assay, purified pig kidney enzyme; assay type: biochemical; settings: for Ki: 1% DMSO, PKE-1 or PKE-2, optimal turnover conditions (Figure 3)
[3] = target: human kidney Na+/K+-ATPase (HKE) (Homo sapiens, UniProt P05023); experiment: Na+/K+-ATPase activity assay, purified human kidney enzyme; assay type: biochemical; settings: for Ki: read-out: Ki, inhibition of Na+/K+-ATPase activity of HKE-1, HKE-1, 1% DMSO, optimal turnover conditions (Figure 4A)
[4] = nearly constant levels by appropriate dosage regimens; cited from earlier work
[5] = tested on: purified PKE (pig kidney Na+/K+-ATPase); settings: ref 11 (Laursen et al., their Figure 3); cited from earlier work
[6] = read-out: Ki, inhibition of Na+/K+-ATPase activity of PKE

C[C@]12CC[C@H](O)C[C@@]1(O)CC[C@@H]1[C@@H]2CC[C@]2(C)[C@@H](c3ccc(=O)oc3)C[C@H]3O[C@]132 [MBG, marinobufagenin]
fold less potent than ouabain by relative binding constants [1]: about 200 fold
Ki [2, 6]: 1.5 ± 0.12 µM
potency relative to ouabain in Na+/K+-ATPase activity assays ([3]; HKE-1 (Figure 4A)): equally potent
Ki [3]: 1.07 ± 0.04 µM

C[C@H]1O[C@@H](O[C@H]2[C@@H](O)C[C@H](O[C@H]3[C@@H](O)C[C@H](O[C@H]4CC[C@@]5(C)[C@H](CC[C@@H]6[C@@H]5C[C@@H](O)[C@]5(C)[C@@H](C7=CC(=O)OC7)CC[C@]65O)C4)O[C@@H]3C)O[C@@H]2C)C[C@H](O)[C@@H]1O [digoxin]
Ki ([2]; Ki, inhibition of Na+/K+-ATPase activity of PKE): 1.95 ± 0.15 µM
blood levels when used clinically [4]: 0.64 to 1.15 nM

C[C@]12C[C@@H](O)[C@H]3[C@@H](CC[C@]4(O)C[C@@H](O)C[C@@H](O)[C@]34CO)[C@@]1(O)CC[C@@H]2C1=CC(=O)OC1 [ouabagenin]
extent of inhibition of Na+/K+-ATPase activity ([2]; PKE (Figure 3)): complete inhibition
fold less potent than ouabain in Na+/K+-ATPase activity assays ([2]; PKE (Figure 3)): about 3 fold
Ki [2, 6]: 3.07 ± 0.23 µM
Ki [3]: 4.4 ± 0.27 µM
extent of inhibition of the enzyme [5]: only a partial inhibitor
fold less potent than ouabain by relative binding constants [5]: about 800 fold

C[C@@H]1O[C@@H](O[C@H]2C[C@@H](O)[C@]3(CO)[C@H]4[C@H](O)C[C@]5(C)[C@@H](C6=CC(=O)OC6)CC[C@]5(O)[C@@H]4CC[C@]3(O)C2)[C@H](O)[C@H](O)[C@H]1O [ouabain]
preincubation time sufficient to obtain the maximal inhibitory effect ([2]; PKE-1, incubation times 10–60 min, 0.25–1000 μM): 10 min
ouabain sensitivity of large-scale PKE preparation versus single kidney PKEs ([2]; large-scale PKE, specific activity 1035 μmol Pi mg–1 h–1, results not shown): not significantly different
